In PMC8537277 (Pharmaceuticals, 2021):
Several values for one entry are separate records, joined by “and”; a condition that tells them apart may be missing. Identical values can stand only once. Like-named read-outs stand apart in the source and are kept apart here. Where a SMILES comes first, the peptide text is derived from it.

Columns and labels:
[1] = test system: A/Roma-ISS/02/08 H1N1 oseltamivir-sensitive virus; details: reference peptides; ref Scala et al. (2017) [14]; read-out: HI Titer (IC50) A/Roma-ISS/02/08 H1N1; cited from earlier work
Cytotoxicity assay = assay type: cell-based, canine; details: dog, MDCK cells
Description: This procedure was performed as reported elsewhere. Briefly, two-fold serial dilutions of each peptide in culture medium were incubated at 37 °C with confluent MDCK cells grown in 96-well tissue culture microplates (Nalge Nunc Europe Ltd., Neerijse, Belgium). After 24 h, the following parameters were evaluated: cell morphology, which was examined by light microscopy; cell viability, which was determined by neutral red staining as already described by us; and cell proliferation, which was evaluated quantitatively by microscopic counts after dispersion into individual cells with trypsin.

A/Parma/05/06 H3N2 [2] = test system: A/Parma/05/06 H3N2; set-up: method as in Scala et al. (2017) [14]; details: reference peptides; ref Scala et al. (2017) [14]; read-out: HI Titer (IC50) A/Parma/05/06 H3N2; cited from earlier work
A/Parma/05/06 H3N2 [3] = details: MDCK cells; ref Scala et al. (2017) [14]; cited from earlier work
A/Roma-ISS/02/08 H1N1 = details: MDCK cells; ref Scala et al. (2017) [14]; cited from earlier work
[4] = target: HA (H1N1 hemagglutinin, Cat No: Z03181, GenScript); details: read-out: SPR KD
[5] = target: HA (H1N1 hemagglutinin, Cat No.: Z03181, GenScript); details: read-out: MST KD
[6] = test system: A/Roma-ISS/02/08 H1N1 oseltamivir-sensitive virus; details: A/Roma-ISS/02/08 oseltamivir-sensitive virus, 1 h
A/Parma/05/06 H3N2 [7] = details: A/Parma/05/06, 1 h
A/Parma/24/09 H1N1 = details: MDCK cells; ref Scala et al. (2017) [14]; cited from earlier work

SMILES	Kd [4]	Kd [5]	also measured
CC(=O)N[C@@H](CO)C(=O)N[C@@H](CCCCN)C(=O)N[C@@H](Cc1c[nH]cn1)C(=O)N[C@@H](CO)C(N)=O [Peptide 1, Ac-SKHS-NH2] (Ac-SKHS-NH2)	–	–	IC50 [1]: 0.1 nM; CC50 at 24 h (Cytotoxicity assay): > 25000 nM; IC50 (A/Parma/05/06 H3N2 [2]): 12 nM; EC50 (A/Parma/05/06 H3N2 [3]): 0.005 nM; EC50 (A/Roma-ISS/02/08 H1N1): 0.003 nM
CC(=O)N[C@@H](CO)C(=O)N[C@@H](C)C(=O)N[C@@H](Cc1c[nH]cn1)C(=O)N[C@@H](CO)C(N)=O [Peptide 4, Ac-SAHS-NH2] (Ac-SAHS-NH2)	3.57 ± 0.12 nM	8.22 nM and 8.2 nM	CC50 at 24 h (Cytotoxicity assay): > 25000 nM
CC(=O)N[C@@H](C)C(=O)N[C@@H](CCCCN)C(=O)N[C@@H](Cc1c[nH]cn1)C(=O)N[C@@H](CO)C(N)=O [Peptide 3] (Ac-AKHS-NH2)	2700 ± 40 nM	3120 ± 110 nM	IC50 [6]: 0.6 nM; IC50 (A/Parma/05/06 H3N2 [7]): 12 nM
CC(=O)N[C@@H](CO)C(=O)N[C@@H](CCCCN)C(=O)N[C@@H](Cc1c[nH]cn1)C(=O)N[C@@H](C)C(N)=O [Peptide 6] (Ac-SKHA-NH2)	6750 ± 810 nM	11400 ± 170 nM	–
CC(=O)N[C@@H](CO)C(=O)N[C@@H](CC(C)C)C(=O)N[C@@H](CC(=O)O)C(=O)N[C@@H](C)C(N)=O [Peptide 10] (Ac-SLDA-NH2)	343 ± 19 nM	2690 ± 90 nM	IC50 (A/Parma/05/06 H3N2 [7]): 0.0021 nM
CC(=O)N[C@@H](CO)C(=O)N[C@@H](CC(C)C)C(=O)N[C@@H](CC(=O)O)C(=O)N[C@@H](CS)C(N)=O [Peptide 2, Ac-SLDC-NH2] (Ac-SLDC-NH2)	–	–	IC50 (A/Parma/05/06 H3N2 [2]): 1.5 nM; EC50 (A/Parma/05/06 H3N2 [3]): 0.0043 nM; EC50 (A/Parma/24/09 H1N1): 0.0046 nM
CC(=O)N[C@@H](CO)C(=O)N[C@@H](C)C(=O)N[C@@H](CC(=O)O)C(=O)N[C@@H](CS)C(N)=O [Peptide 8] (Ac-SADC-NH2)	2190 ± 510 nM	6380 ± 210 nM	–
CC(=O)N[C@@H](CO)C(=O)N[C@@H](CC(C)C)C(=O)N[C@@H](C)C(=O)N[C@@H](CS)C(N)=O [Peptide 9] (Ac-SLAC-NH2)	2570 ± 340 nM	5.8 ± 0.3 nM	–
CC(=O)N[C@@H](C)C(=O)N[C@@H](CC(C)C)C(=O)N[C@@H](CC(=O)O)C(=O)N[C@@H](CS)C(N)=O [Peptide 7] (Ac-ALDC-NH2)	27.7 ± 1.7 nM	21200 ± 410 nM	–
CC(=O)N[C@@H](CO)C(=O)N[C@@H](CCCCN)C(=O)N[C@@H](C)C(=O)N[C@@H](CO)C(N)=O [Peptide 5] (Ac-SKAS-NH2)	1030 ± 10 nM	7010 ± 90 nM	–
